Columns and labels:
chlorophyllase = assay: In vitro chlorophyllase-inhibiting activity test; format: biochemical, mung bean; conditions: substrate chlorophyll 120 ppm, sample 0.3 ppm to 30.0 ppm
Protocol: A chlorophyllase inhibition rate of a salt sample solution at each concentration was determined, and an IC50 value for a chlorophyllase inhibition activity of a salt sample was calculated.

mung bean seedlings = assay: Inducing adventitious roots from hypocotyls of mung bean; format: in vivo; conditions: day 7
Protocol: Test solution preparation: 8 mL of a commercially-available STANLEY universal hydroponic nutrient solution was taken and diluted with tap water to 3,200 mL (400-fold dilution) to produce a dilute nutrient solution. An appropriate amount of each of salt samples such as protoporphyrin disodium and potassium chlorhematin was weighed and prepared with the dilute nutrient solution into 0.010 ppm and 0.1 ppm sample test solutions, and 150 mL of each test solution was taken. 150 mL of the dilute nutrient solution was taken as a blank control. The test solutions and the control solution were placed in brown bottles, and the brown bottles were sealed with a black film. Mung bean seedlings with uniform growth and a seedling height of 7 cm to 8 cm were selected, and cut at 3 cm below a first true leaf node. 8 mung bean seedlings were inserted into each bottle (with roots removed) to make lower radicles soaked in a solution. Mung bean seedlings were treated at room temperature of 20° C. to 25° C. for 7 d in total, during which the solution was changed every 2 d. On day 2 to day 3 of the treatment, there was a significant difference. On day 7, the observation and determination were conducted. An average adventitious root number and an average total adventitious root length for each seedling were calculated, and results were shown in the following table: […]

rice = assay: Germination of rice under salt stress; format: in vivo, rice (Nanjing 9108); conditions: sample 0.2 ppm; for Increase of root weight-promoting speed / Increase of root-shoot ratio / Increase of seedling weight-promoting rate: versus 4.5 g/L NaCl without sample
Protocol: The selected full seeds of rice (variety: Nanjing 9108) were soaked in a sodium hypochlorite solution to allow disinfection for 2 min to 3 min, and then rinsed with clear water twice to three times. After the rinsing, 50 full seeds were selected and fully immersed in a prepared seed-soaking solution at 25° C. for 48 h. The soaked seeds were transferred to a plastic box with two paper towel layers tiled. The germination bed was moistened with a salt solution at a concentration corresponding to each treatment. The seeds were incubated in a 25° C. incubator with a light cycle of 12 h light/12 h dark and a humidity of 70%, during which the germination bed was always kept moist. The germination of rice seeds and the growth of seedlings were observed and recorded day by day. A germination rate of each treatment was recorded on […], and a number of normal seedlings was counted on day 14. 10 seeds were randomly selected from each treatment to measure a seedling length, a root length, a root number, a root weight, and a seedling weight. The germination energy was counted on day 5 and a germination rate was counted on day 14.

[1] = Water solubility of the prepared salts; format: physicochemical
rice seedlings = assay: Spraying on drought rice seedlings; format: in vivo, rice (Huiliangyou 473)
Protocol: Method: Full rice seeds were selected, disinfected with 6% sodium hypochlorite for 2 min to 3 min, then rinsed with water, soaked in clear water at room temperature (30±1° C.) until the germination was started, and then transferred to seedling trays to raise seedlings. About 15 d later, rice seedlings with consistent growth were selected and transferred into buckets to allow further growth, with 3 holes per bucket and 2 plants per hole. A soil was a clay loam. Before transplanting, the soil was crushed, sieved, and thoroughly mixed. […] The water, fertilizers, pests, and diseases during the cultivation in the seedling trays were uniformly managed.
Drought model: The transplanting was conducted on Aug. 18, 2020. The next day (August 19), the natural drought and sample-spraying treatment were started for rice seedlings. A soil moisture content was determined by the NY/T 52-1987 method.
After the drought stress and sample-spraying were started at a tillering stage (September 19) of rice, a chlorophyll content (mg/g) in leaves was detected twice on day 3 and day 6 (September 21 and September 25), respectively.

[2] = Stability of sample solutions in the dark/under light; format: physicochemical; conditions: under light 30,000 lux, salts in water, acidic reference in 30% to 50% ethanol
Summary of the method: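 Salt in water, or acidic reference in 30–50% aqueous ethanol, at about 10 ppm; UV absorbance scanned 200–800 nm at 0, 1, 2, 3 h, stored at 25° C dark or under 30,000 lux light. Relative content = max-peak absorbance at each time divided by 0 h value (100%).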

wheat = assay: Spraying on wheat to increase a yield; format: in vivo, wheat (Huaimai 35)
Protocol: Crop: Huaimai 35. […] On Jun. 11, 2021, the harvesting was conducted throughout the field at a time.

[3] = 3 mg/mu sprayed 3 times (0.2, 0.1, 0.1 ppm)

potassium iron chlorin [Example 20]
IC50 for chlorophyllase inhibition activity (chlorophyllase): 5.07 ppm | Adventitious root number (mung bean seedlings; 0.01 ppm): 15.05 root/seedling | Total adventitious root length (mung bean seedlings; 0.01 ppm): 24.56 cm/seedling | Adventitious root number (mung bean seedlings; 0.1 ppm): 14.54 root/seedling | Total adventitious root length (mung bean seedlings; 0.1 ppm): 23.55 cm/seedling | Average germination time (rice; NaCl 0 g/L): 3.10 D | Dry root weight (rice; NaCl 0 g/L): 0.0587 g/plant | Dry seedling weight (rice; NaCl 0 g/L): 0.0543 g | First leaf length (rice; NaCl 0 g/L): 3.84 cm | Germination energy (rice; NaCl 0 g/L): 98.0% | Germination index (rice; NaCl 0 g/L): 52.21% | Germination rate (rice; NaCl 0 g/L): 98.0% | Root length (rice; NaCl 0 g/L): 7.00 cm | Root number (rice; NaCl 0 g/L): 8.67 roots/plant | Root weight-promoting speed (rice; NaCl 0 g/L): 4.19 mg/day | Root-shoot ratio (rice; NaCl 0 g/L): 1.082 | Seedling height (rice; NaCl 0 g/L): 6.83 cm | Seedling weight-promoting rate (rice; NaCl 0 g/L): 3.88 mg/day | Vitality index (rice; NaCl 0 g/L): 16.29% | Increase of root weight-promoting speed (rice; NaCl 0 g/L): 53.04% | Increase of root-shoot ratio (rice; NaCl 0 g/L): 25.31% | Increase of seedling weight-promoting rate (rice; NaCl 0 g/L): 19.27% | Average germination time (rice; NaCl 2.5 g/L): 3.28 D | Dry root weight (rice; NaCl 2.5 g/L): 0.0473 g/plant | Dry seedling weight (rice; NaCl 2.5 g/L): 0.0547 g | First leaf length (rice; NaCl 2.5 g/L): 3.79 cm | Germination energy (rice; NaCl 2.5 g/L): 96.7% | Germination index (rice; NaCl 2.5 g/L): 49.99% | Germination rate (rice; NaCl 2.5 g/L): 97.3% | Root length (rice; NaCl 2.5 g/L): 4.86 cm | Root number (rice; NaCl 2.5 g/L): 7.70 roots/plant | Root weight-promoting speed (rice; NaCl 2.5 g/L): 3.38 mg/day | Root-shoot ratio (rice; NaCl 2.5 g/L): 0.865 | Seedling height (rice; NaCl 2.5 g/L): 6.68 cm | Seedling weight-promoting rate (rice; NaCl 2.5 g/L): 3.90 mg/day | Vitality index (rice; NaCl 2.5 g/L): 14.38% | Increase of root weight-promoting speed (rice; NaCl 2.5 g/L): 23.48% | Increase of root-shoot ratio (rice; NaCl 2.5 g/L): 0.15% | Increase of seedling weight-promoting rate (rice; NaCl 2.5 g/L): 20% | Average germination time (rice; NaCl 4.5 g/L): 3.16 D | Dry root weight (rice; NaCl 4.5 g/L): 0.0480 g/plant | Dry seedling weight (rice; NaCl 4.5 g/L): 0.0580 g | First leaf length (rice; NaCl 4.5 g/L): 3.88 cm | Germination energy (rice; NaCl 4.5 g/L): 97.3% | Germination index (rice; NaCl 4.5 g/L): 50.89% | Germination rate (rice; NaCl 4.5 g/L): 97.3% | Root length (rice; NaCl 4.5 g/L): 5.00 cm | Root number (rice; NaCl 4.5 g/L): 7.17 roots/plant | Root weight-promoting speed (rice; NaCl 4.5 g/L): 3.43 mg/day | Root-shoot ratio (rice; NaCl 4.5 g/L): 0.836 | Seedling height (rice; NaCl 4.5 g/L): 6.71 cm | Seedling weight-promoting rate (rice; NaCl 4.5 g/L): 4.14 mg/day | Vitality index (rice; NaCl 4.5 g/L): 15.12% | Increase of root weight-promoting speed (rice; NaCl 4.5 g/L): 25.22% | Increase of root-shoot ratio (rice; NaCl 4.5 g/L): −3.17% | Increase of seedling weight-promoting rate (rice; NaCl 4.5 g/L): 27.32% | solubility in water [1]: easily soluble | Change rate of chlorophyll content (rice seedlings; 0.002 ppm, Day 3): 9.49% | Chlorophyll content in rice leaves (rice seedlings; 0.002 ppm, Day 3): 3.69 mg/g | Change rate of chlorophyll content (rice seedlings; 0.002 ppm, Day 6): 42.96% | Chlorophyll content in rice leaves (rice seedlings; 0.002 ppm, Day 6): 3.86 mg/g | Change rate of chlorophyll content (rice seedlings; 0.05 ppm, Day 3): 29.67% | Chlorophyll content in rice leaves (rice seedlings; 0.05 ppm, Day 3): 4.37 mg/g | Change rate of chlorophyll content (rice seedlings; 0.05 ppm, Day 6): 63.70% | Chlorophyll content in rice leaves (rice seedlings; 0.05 ppm, Day 6): 4.42 mg/g | Relative content ([2]; 1 h): 70.13% | Relative content ([2]; 2 h): 62.66% | Relative content ([2]; 3 h): 59.17% | Actual yield per mu (wheat; [3]): 601.5 kg | Ear number per mu (wheat; [3]): 31.9 10,000 | Grain number per ear (wheat; [3]): 35.0 grains/ear | Thousand-grain weight (wheat; [3]): 53.9 g | Yield increase rate per mu (wheat; 3 mg/mu sprayed 3 times, versus clear water): 7.60%
